Source: article PMC10220648 (Viruses, 2023)
Read-outs that look alike come from different tables or passages of the source.

Legend:
[1] = tested on: HIV-1AD8-infected primary CD4+ T cells; experiment: FACS-based ADCC assay with HIV+ plasma; format: cell-based, human; conditions: 50µM compound; plasma 1/1000; effector/target 10:1
[2] = tested on: HIV-1JRFL-infected primary CD4+ T cells; experiment: Anti-CoRBS 17b mAb binding to infected cells (flow cytometry); format: cell-based, human; conditions: 50 µM CD4mc; p24+ population; MFI
[3] = tested on: HIV-1AD8-infected primary CD4+ T cells; experiment: HIV+ plasma cell-surface staining of infected cells; format: cell-based, human; conditions: 50µM compound; plasma 1:1000
HIV-1AD8 = experiment: microbe, parasite or virus in culture; format: cell-based; conditions: TZM-bl cells, tier-2 virus, average ± SD of at least three independent experiments, read-out: Viral neutralization IC50, HIV-1AD8
LMHT gp120CRF01_AE coree = LMHT gp120CRF01_AE coree (Human immunodeficiency virus type 1, UniProt Q0ED31, DEL123-198/DEL305-311/DEL316-323/H375T/H60Y/I469M/K470R/N199G/N304G/N468D/P313S/Q104H/Q315S/T200G/V107I); experiment: biochemical; format: binding, HIV-1
HIV-1CH58TF = experiment: microbe, parasite or virus in culture; format: cell-based; conditions: TZM-bl cells, average ± SD of at least three independent experiments, read-out: Viral neutralization IC50, HIV-1CH58TF
VSV-G pseudovirus = experiment: microbe, parasite or virus in culture; format: cell-based; conditions: TZM-bl, read-out: Viral neutralization IC50, VSV-G Pseudovirus
[4] = tested on: HIV-1CH58TF-infected primary CD4+ T cells; experiment: HIV+ plasma cell-surface staining of infected cells; format: cell-based, human; conditions: 50µM compound; plasma 1:1000
[5] = tested on: HIV-1CH58TF-infected primary CD4+ T cells; experiment: FACS-based ADCC assay with HIV+ plasma; format: cell-based, human; conditions: 50µM compound; plasma 1/1000; effector/target 10:1
[6] = tested on: HIV-1CH58TF-infected primary CD4+ T cells; experiment: Anti-CoRBS 17b mAb binding to infected cells (flow cytometry); format: cell-based, human; conditions: 50 µM CD4mc; p24+ population; MFI
HIV-1JRFL = format: cell-based; conditions: TZM-bl cells; tier-2 virus; average ± SD of at least three independent experiments
[7] = tested on: HIV-1JRFL-infected primary CD4+ T cells; experiment: FACS-based ADCC assay with HIV+ plasma; format: cell-based, human; conditions: 50µM compound; plasma 1/1000; effector/target 10:1
[8] = tested on: HIV-1JRFL-infected primary CD4+ T cells; experiment: HIV+ plasma cell-surface staining of infected cells; format: cell-based, human; conditions: 50µM compound; plasma 1:1000
[9] = Human immunodeficiency virus 1, TZM-bl

| Structure (SMILES) | Susceptibility to ADCC mediated by HIV+ plasma, HIV-1AD8 [1] | 17b binding (exposure of the CoRBS), HIV-1JRFL-infected cells [2] | HIV+ plasma binding (recognition of infected cells), HIV-1AD8 [3] | IC50 (HIV-1AD8; [9]) | IC50 (LMHT gp120CRF01_AE coree) | IC50 (HIV-1CH58TF; [9]) | IC50 (VSV-G pseudovirus) | IC50 (HIV-1AD8) | HIV+ plasma binding (recognition of infected cells), HIV-1CH58TF [4] | IC50 (HIV-1CH58TF) | Susceptibility to ADCC mediated by HIV+ plasma, HIV-1CH58TF [5] | 17b binding (exposure of the CoRBS), HIV-1CH58TF-infected cells [6] | Viral neutralization IC50, HIV-1JRFL (HIV-1JRFL) | Susceptibility to ADCC mediated by HIV+ plasma, HIV-1JRFL [7] | HIV+ plasma binding (recognition of infected cells), HIV-1JRFL [8] |
| --- | --- | --- | --- | --- | --- | --- | --- | --- | --- | --- | --- | --- | --- | --- | --- |
| NCC(=O)N1CCN(C(=O)N2C[C@H](CO)C[C@H](C(=O)Nc3ccc(Cl)c(F)c3)C2)CC1 (racemic) [DL-I-101] | translated into ADCC | successfully exposed the CoRBS | did | 10.2 ± 3.1 µM | 0.308 µM | 0.16 ± 0.03 µM | > 100 µM |  |  |  |  |  |  |  |  |
| O=C(O)CN1CCN(C(=O)N2C[C@H](CO)C[C@H](C(=O)Nc3ccc(Cl)c(F)c3)C2)CC1 (racemic) [DL-I-102] |  | successfully exposed the CoRBS |  | 87 ± 39 µM | 0.561 µM | 0.66 ± 0.25 µM | > 100 µM |  |  |  |  |  |  |  |  |
| CNCc1ccc2c(c1)C[C@H](CNC(=N)N)[C@H]2NC(=O)C(=O)Nc1ccc(Cl)c(F)c1 [BNM-III-170, reference compound] |  |  |  | 3.75 µM |  | 0.0336 µM | > 100 µM | 3.75 ± 1.3 µM | enhanced the recognition | 0.033 ± 0.01 µM | enhanced |  |  |  |  |
| NCCNC(=O)N1CCC[C@H](C(=O)Nc2ccc(Cl)c(F)c2)C1 [MCG-IV-210, reference compound] |  | but not the tier-2 HIV-1JRFL | did not promote HIV+ plasma binding | > 100 µM | 0.969 µM | 3.46 ± 1.06 µM | > 100 µM |  | enhanced the recognition |  | enhanced | exposed the CoRBS | unable to inhibit viral infection |  |  |
| CN1CCN(C(=O)N2CCC[C@H](C(=O)Nc3ccc(Cl)c(F)c3)C2)CC1 [TFH-I-070-A6] |  | successfully exposed the CoRBS | did | 9.59 ± 3.4 µM |  | 0.45 ± 0.09 µM | > 100 µM |  |  |  |  |  |  |  |  |
| CC1CN(C(=O)N2CCCC(C(=O)Nc3ccc(Cl)c(F)c3)C2)CC(C)N1C (stereo not shown) [TFH-I-116-D1] | translated into ADCC | successfully exposed the CoRBS | did | 4.8 µM |  | 0.0655 µM | > 100 µM |  |  |  |  |  |  | not translated into enhanced ADCC | recognized the infected cells |
| CN1CCN(C(=O)N2C[C@H](CN)C[C@H](C(=O)Nc3ccc(Cl)c(F)c3)C2)CC1 [ZXC-I-090] |  |  |  | > 100 µM |  | 2.63 ± 0.5 µM | > 100 µM |  |  |  |  |  |  |  |  |
| C[C@@H]1CN(C(=O)N2C[C@H](CN)C[C@H](C(=O)Nc3ccc(Cl)c(F)c3)C2)C[C@H](C)N1C [ZXC-I-092] |  | successfully exposed the CoRBS |  | 34 ± 13.8 µM |  | 0.75 ± 0.12 µM | > 100 µM |  |  |  |  |  |  |  |  |
